# Measurements as given in patent publication US20250114356A1, “INDAZOLE BASED COMPOUNDS AND ASSOCIATED METHODS OF USE” (Arvinas Operations, Inc., priority 2020, published 2025).
# Experiments:
# Type in all cases: cell-based
# [1] = target: T1, LRRK2 (endogenous gene tagged with a HiBit sequence) (Homo sapiens, UniProt Q5S007); assay: LRRK2 degradation assay, endogenous LRRK2 gene tagged with HiBit in HEK293 cells; details: 24 hours compound incubation
# T1 construct: endogenous in cells; host or cells: HEK293 with a HiBit knock-in at the endogenous LRRK2 locus, stably expressing firefly luciferase
# T1 sequence (Q5S007 whole entry): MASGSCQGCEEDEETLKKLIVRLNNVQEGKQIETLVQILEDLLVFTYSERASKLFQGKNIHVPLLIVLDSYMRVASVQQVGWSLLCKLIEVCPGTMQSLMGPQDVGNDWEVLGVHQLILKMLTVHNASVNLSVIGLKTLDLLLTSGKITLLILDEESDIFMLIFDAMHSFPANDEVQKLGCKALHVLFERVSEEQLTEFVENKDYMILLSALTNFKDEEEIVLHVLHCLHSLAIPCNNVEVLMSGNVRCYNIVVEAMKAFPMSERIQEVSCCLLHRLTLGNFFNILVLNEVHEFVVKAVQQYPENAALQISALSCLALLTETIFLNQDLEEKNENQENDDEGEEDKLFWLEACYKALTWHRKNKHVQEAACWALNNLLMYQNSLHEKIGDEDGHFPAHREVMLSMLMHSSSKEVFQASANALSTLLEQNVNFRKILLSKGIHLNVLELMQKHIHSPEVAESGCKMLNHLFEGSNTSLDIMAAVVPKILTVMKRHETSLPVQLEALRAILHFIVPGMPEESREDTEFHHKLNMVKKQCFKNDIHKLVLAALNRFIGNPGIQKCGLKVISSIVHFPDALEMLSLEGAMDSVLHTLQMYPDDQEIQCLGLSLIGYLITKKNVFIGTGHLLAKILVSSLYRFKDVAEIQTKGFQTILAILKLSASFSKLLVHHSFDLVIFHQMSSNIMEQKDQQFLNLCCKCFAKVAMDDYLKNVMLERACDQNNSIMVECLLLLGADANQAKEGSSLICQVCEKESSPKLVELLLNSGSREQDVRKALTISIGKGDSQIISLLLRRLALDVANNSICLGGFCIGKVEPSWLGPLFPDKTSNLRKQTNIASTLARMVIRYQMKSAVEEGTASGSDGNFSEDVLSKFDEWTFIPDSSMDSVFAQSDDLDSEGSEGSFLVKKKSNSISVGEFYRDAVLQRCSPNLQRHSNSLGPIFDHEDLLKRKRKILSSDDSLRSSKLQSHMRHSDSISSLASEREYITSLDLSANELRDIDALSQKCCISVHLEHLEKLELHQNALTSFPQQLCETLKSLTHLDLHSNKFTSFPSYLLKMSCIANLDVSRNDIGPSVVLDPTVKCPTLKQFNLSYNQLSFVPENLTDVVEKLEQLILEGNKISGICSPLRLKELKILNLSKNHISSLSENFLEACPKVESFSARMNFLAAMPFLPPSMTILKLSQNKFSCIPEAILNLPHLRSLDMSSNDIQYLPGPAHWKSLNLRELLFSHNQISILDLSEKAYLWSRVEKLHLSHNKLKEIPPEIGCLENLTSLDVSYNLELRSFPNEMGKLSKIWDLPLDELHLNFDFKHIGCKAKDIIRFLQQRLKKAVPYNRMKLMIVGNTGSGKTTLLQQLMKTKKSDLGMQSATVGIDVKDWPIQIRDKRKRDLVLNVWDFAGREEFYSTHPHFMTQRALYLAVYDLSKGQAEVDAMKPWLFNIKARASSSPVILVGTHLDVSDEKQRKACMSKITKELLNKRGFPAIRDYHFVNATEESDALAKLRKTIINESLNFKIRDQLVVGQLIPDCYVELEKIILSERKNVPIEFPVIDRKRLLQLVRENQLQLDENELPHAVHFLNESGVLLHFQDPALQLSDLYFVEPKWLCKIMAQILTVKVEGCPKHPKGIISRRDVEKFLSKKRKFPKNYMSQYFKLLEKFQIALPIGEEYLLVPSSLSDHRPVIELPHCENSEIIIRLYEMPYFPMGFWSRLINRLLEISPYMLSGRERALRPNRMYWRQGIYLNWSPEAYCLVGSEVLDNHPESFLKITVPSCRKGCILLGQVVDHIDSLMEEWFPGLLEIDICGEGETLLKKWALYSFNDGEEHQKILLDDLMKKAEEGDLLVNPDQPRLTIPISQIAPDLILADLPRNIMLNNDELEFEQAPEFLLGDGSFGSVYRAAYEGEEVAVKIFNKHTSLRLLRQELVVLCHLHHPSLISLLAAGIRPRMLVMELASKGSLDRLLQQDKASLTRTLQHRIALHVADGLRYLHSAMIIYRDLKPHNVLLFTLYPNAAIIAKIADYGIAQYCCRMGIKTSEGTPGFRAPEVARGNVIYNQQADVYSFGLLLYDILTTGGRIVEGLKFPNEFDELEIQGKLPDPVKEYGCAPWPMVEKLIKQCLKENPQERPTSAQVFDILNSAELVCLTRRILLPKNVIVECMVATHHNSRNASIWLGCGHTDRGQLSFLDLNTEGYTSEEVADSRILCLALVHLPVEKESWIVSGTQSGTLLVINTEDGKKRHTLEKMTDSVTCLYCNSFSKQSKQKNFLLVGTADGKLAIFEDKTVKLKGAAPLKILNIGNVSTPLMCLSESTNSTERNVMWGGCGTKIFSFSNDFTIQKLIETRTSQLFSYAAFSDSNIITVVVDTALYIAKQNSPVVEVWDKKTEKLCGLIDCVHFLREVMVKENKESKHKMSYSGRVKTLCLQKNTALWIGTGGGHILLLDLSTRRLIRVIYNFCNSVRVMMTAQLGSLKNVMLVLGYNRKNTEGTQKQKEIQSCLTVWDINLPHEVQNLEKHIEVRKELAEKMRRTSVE
# Protocol: The assay measures the degradation of LRRK2 in cells where the C-terminus (3′) of the endogenous gene has been tagged with a HiBit sequence in HEK293 cells. The cells also express firefly lucisferase, expressed from a Cytomegalovirus promoter and introduced into the HiBit tagged cells and stably expressed. The Nano-Glo® Dual Luciferase Reporter Assay System (Promega™, Madison, WI) was utilized.
# Day 1—Preparation of Compound and Assay Plates. Two sets of plates were prepared: a triplicate set for the HiBit assay in white 384-well plates and a triplicate set of plate in black 384-well plates for the Alamar Blue cell viability assay. Briefly, the growth media (DMEM+Glutamax-10% fetal bovine serum-1% Penicillin-Streptomicin) from two T128 flasks was aspirated from the flasks. Cells were washed with Dulbecco's Phosphate Buffered Saline (dPBS) and aspirated. Trypsin (3 mL per flask) was added and the flasks were incubated for 2-3 minutes.
# Ten mL of OptiMEM-10% fetal bovine-1% penicillin-streptomycin (hereinafter, “OptiMEM media”) was added to the flask and the cells and transferred to a 50 mL conical tube. A cell count (25 ul of cell into Effendorf vial+25 ul of Trypan Blue Stain) was performed and the cell density adjusted to 15,000 cell/45 μl/well (3.33×10^5/mL) in OptiMEM media.
# Forty-five microliters of the cell suspension (15,000 cells) was aliquoted to each well of the white 384-well plate. The plates incubated at room temperature for 10 minutes before being placed in the 37° C.+5% CO2 incubator overnight
# Day 2—Compound Treatment. Exemplary compounds were prepared at a 1 mM starting concentration and 1:3 serial dilution for 11 points CRC prepared and stored in the freezer. The Master Compound Plate was thawed overnight at room temperature. DMSO (20 μL) was added into column 24 of the Master Compound Plate for negative control and 20 μL of 300 μM of Exemplary Compound 4 in column 23 as positive control.
# Intermediate Compound Plate with 4% DMSO in OptiMEM Media. DMSO was added to warm OptiMEM media to achieve a 4% DMSO solution (approximately 50 mL/plate). One-hundred microliters of the OptiMEM-4% DMSO was aliquoted to each well of 384-Well Deep Well Microplates.
# The Master Compound Plate and the Intermediate Compound Plate were spun down.
# One microliter of compound from the Master Compound Plate was transferred into the Intermediate plate (a 1:100 dilution). […]
# Day 3—HiBit Assay. […] Fluorescence of each plate was read on a plated reader for the Alamar Blue viability assay. […]
# The One Glo luciferase mixture was prepared. […] The luminescence of each plate was read on a plate reader.
# 1:100 DLR substrate and 1:100 LgBiT Protein dilution were added to the Promega Stop and Glo buffer and mixed just before addition to assay plates. […] The luminescence of each plate was read on a plate reader. […]
# G2019S LRRK2 = target: T2, G2019S LRRK2 (Homo sapiens, UniProt Q5S007, G2019S); assay: LRRK2 degradation assay, G2019S LRRK2-HiBit expressed from plasmid in HEK293 cells; details: HEK293 cells transfected with HiBit-tagged G2019S LRRK2, 24 hours compound incubation
# T2 construct: expressed in transfected cells; host or cells: HEK293 (ATCC CRL-1573), transient transfection, ubiquitin promoter
# T2 sequence (Q5S007 whole entry G2019S): as the sequence (Q5S007 whole entry) above, with G2019S counted along it
# Method in brief: (§1)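 DC50 and Dmax derived from per-plate curve fits of LRRK2-HiBit signal over firefly luciferase (cell number/viability), as % of DMSO median, from 6 replicates across two days. Compound exposure was 24 hours at 37° C. in HEK293 cells transfected with wild-type or G2019S LRRK2 bearing a C-terminal HiBit tag.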
# wildtype LRRK2 = target: T3, wildtype LRRK2 (Homo sapiens, UniProt Q5S007); assay: LRRK2 degradation assay, wildtype LRRK2-HiBit expressed from plasmid in HEK293 cells; details: HEK293 cells transfected with HiBit-tagged wildtype LRRK2, 24 hours compound incubation; for Dmax: read-out: **WT Dmax (%); for DC50: read-out: *WT DC50
# T3 construct: expressed in transfected cells; host or cells: HEK293 (ATCC CRL-1573), transient transfection, ubiquitin promoter
# T3 sequence (Q5S007 whole entry): as the sequence (Q5S007 whole entry) above
# Method in brief: as §1
Dmax ([1]; read-out: **Endogenous WT Dmax (%)),DC50 ([1]; read-out: *Endogenous WT DC50),DC50 (G2019S LRRK2),Dmax (G2019S LRRK2),Dmax (wildtype LRRK2),DC50 (wildtype LRRK2),SMILES
50 to 70%,< 10 nM,< 10 nM,≥ 70%,50 to 70%,< 10 nM,"C[C@H]1CN(c2cc(-c3n[nH]c4ccc(OC5(C)CC5)cc34)ncn2)CCN1CC1CCN(CC2CCN(c3ccc4c(c3)C(=O)N(C3CCC(=O)NC3=O)C4=O)CC2)CC1 (stereo partly drawn) [compound 24, 2-(2,6-dioxopiperidin-3-yl)-5-{4-[(4-{[(2S)-2-methyl-4-{6-[5-(1-methylcyclopropoxy)-1H-indazol-3-yl]pyrimidin-4-yl}piperazin-1-yl]methyl}piperidin-1-yl)methyl]piperidin-1-yl}-2,3-dihydro-1H-isoindole-1,3-dione]"
,,< 10 nM,< 50%,< 50%,< 10 nM,"C[C@H]1CN(c2cc(-c3[nH]nc4ccc(OC5(C)CC5)cc34)ncn2)CCN1CCOc1ccc2c(c1)C(=O)N(C1CCC(=O)NC1=O)C2=O (stereo partly drawn) [compound 1, 2-(2,6-dioxopiperidin-3-yl)-5-{2-[(2S)-2-methyl-4-{6-[5-(1-methylcyclopropoxy)-1H-indazol-3-yl]pyrimidin-4-yl}piperazin-1-yl]ethoxy}-2,3-dihydro-1H-isoindole-1,3-dione]"
,,< 10 nM,≥ 70%,≥ 70%,10 to 50 nM,"C[C@H]1CN(c2cc(-c3n[nH]c4ccc(OC5(C)CC5)cc34)ncn2)CCN1CCOC1CCN(CC2CCN(c3ccc4c(c3)C(=O)N(C3CCC(=O)NC3=O)C4=O)CC2)CC1 (stereo partly drawn) [compound 33, 2-(2,6-dioxopiperidin-3-yl)-5-{4-[(4-{2-[(2S)-2-methyl-4-{6-[5-(1-methylcyclopropoxy)-1H-indazol-3-yl]pyrimidin-4-yl}piperazin-1-yl]ethoxy}piperidin-1-yl)methyl]piperidin-1-yl}-2,3-dihydro-1H-isoindole-1,3-dione]"
,,≥ 100 nM,< 50%,< 50%,≥ 100 nM,"CC(C)Oc1ccc2[nH]nc(-c3cc(N4CCN(CCN5CC(OCCOc6ccc7c(c6)C(=O)N(C6CCC(=O)NC6=O)C7=O)C5)[C@@H](C)C4)ncn3)c2c1 (stereo partly drawn) [compound 32, 2-(2,6-dioxopiperidin-3-yl)-5-{2-[(1-{2-[(2S)-2-methyl-4-{6-[5-(propan-2-yloxy)-1H-indazol-3-yl]pyrimidin-4-yl}piperazin-1-yl]ethyl}azetidin-3-yl)oxy]ethoxy}-2,3-dihydro-1H-isoindole-1,3-dione]"
,,≥ 100 nM,< 50%,< 50%,≥ 100 nM,"CC(C)Oc1ccc2[nH]nc(-c3cc(N4CCN(CCOCCOCCOc5ccc6c(c5)C(=O)N(C5CCC(=O)NC5=O)C6=O)[C@@H](C)C4)ncn3)c2c1 (stereo partly drawn) [compound 8, 2-(2,6-dioxopiperidin-3-yl)-5-[2-(2-{2-[(2S)-2-methyl-4-{6-[5-(propan-2-yloxy)-1H-indazol-3-yl]pyrimidin-4-yl}piperazin-1-yl]ethoxy}ethoxy)ethoxy]-2,3-dihydro-1H-isoindole-1,3-dione]"
,,10 to 50 nM,≥ 70%,≥ 70%,< 10 nM,"CC(C)Oc1ccc2[nH]nc(-c3cc(N4CCN(CCN5CCN(CC6CCN(c7ccc8c(c7)C(=O)N(C7CCC(=O)NC7=O)C8=O)CC6)CC5)CC4)ncn3)c2c1 (centres unmarked) [compound 39, 2-(2,6-dioxopiperidin-3-yl)-5-(4-((4-(2-(4-(6-(5-isopropoxy-1H-indazol-3-yl)pyrimidin-4-yl)piperazin-1-yl)ethyl)piperazin-1-yl)methyl)piperidin-1-yl)isoindoline-1,3-dione]"
,,10 to 50 nM,≥ 70%,≥ 70%,10 to 50 nM,"C[C@H]1CN(c2cc(-c3n[nH]c4ccc(OC5(C)CC5)cc34)ncn2)CCN1CCOCCOCCOCCOCCOc1ccc2c(c1)C(=O)N(C1CCC(=O)NC1=O)C2=O (stereo partly drawn) [compound 5, 2-(2,6-dioxopiperidin-3-yl)-5-({14-[(2S)-2-methyl-4-{6-[5-(1-methylcyclopropoxy)-1H-indazol-3-yl]pyrimidin-4-yl}piperazin-1-yl]-3,6,9,12-tetraoxatetradecan-1-yl}oxy)-2,3-dihydro-1H-isoindole-1,3-dione]"
,,≥ 100 nM,50 to 70%,≥ 70%,≥ 100 nM,"CC(C)Oc1cc2c(-c3ccnc(N4CCN(CCOCCOCCOCCOc5ccc6c(c5)C(=O)N(C5CCC(=O)NC5=O)C6=O)[C@@H](C)C4)c3)n[nH]c2cc1F (stereo partly drawn) [compound 14, 2-(2,6-dioxopiperidin-3-yl)-5-{2-[2-(2-{2-[(2S)-4-{4-[6-fluoro-5-(propan-2-yloxy)-1H-indazol-3-yl]pyridin-2-yl}-2-methylpiperazin-1-yl]ethoxy}ethoxy)ethoxy]ethoxy}-2,3-dihydro-1H-isoindole-1,3-dione]"
,,< 10 nM,50 to 70%,50 to 70%,< 10 nM,"C[C@H]1CN(c2cc(-c3n[nH]c4ccc(OC5(C)CC5)cc34)ncn2)CCN1CCOCCN1CCN(c2ccc3c(c2)C(=O)N(C2CCC(=O)NC2=O)C3=O)CC1 (stereo partly drawn) [compound 20, 2-(2,6-dioxopiperidin-3-yl)-5-[4-(2-{2-[(2S)-2-mcthyl-4-{6-[5-(1-methylcyclopropoxy)-1H-indazol-3-yl]pyrimidin-4-yl}piperazin-1-yl]ethoxy}ethyl)piperazin-1-yl]-2,3-dihydro-1H-isoindole-1,3-dione]"
,,10 to 50 nM,50 to 70%,50 to 70%,10 to 50 nM,"CC(C)Oc1ccc2[nH]nc(-c3cc(N4CCN(CC[C@H]5CCN(CC6CCN(c7ccc8c(c7)C(=O)N(C7CCC(=O)NC7=O)C8=O)CC6)C5)CC4)ncn3)c2c1 (stereo partly drawn) [compound 42, 2-(2,6-dioxopiperidin-3-yl)-5-(4-(((R)-3-(2-(4-(6-(5-isopropoxy-1H-indazol-3-yl)pyrimidin-4-yl)piperazin-1-yl)ethyl)pyrrolidin-1-yl)methyl)piperidin-1-yl)isoindoline-1,3-dione]"
,,10 to 50 nM,≥ 70%,≥ 70%,10 to 50 nM,"CC(C)Oc1ccc2[nH]nc(-c3cc(N4CCN(CCN(C)CCCN5CCN(c6ccc7c(c6)C(=O)N(C6CCC(=O)NC6=O)C7=O)CC5)[C@@H](C)C4)ncn3)c2c1 (stereo partly drawn) [compound 36, 2-(2,6-dioxopiperidin-3-yl)-5-(4-{3-[methyl({2-[(2S)-2-methyl-4-{6-[5-(propan-2-yloxy)-1H-indazol-3-yl]pyrimidin-4-yl}piperazin-1-yl]ethyl})amino]propyl}piperazin-1-yl)-2,3-dihydro-1H-isoindole-1,3-dione]"

SMILES,Dmax ([1]; read-out: **Endogenous WT Dmax (%)),DC50 ([1]; read-out: *Endogenous WT DC50),DC50 (G2019S LRRK2),Dmax (G2019S LRRK2),Dmax (wildtype LRRK2),DC50 (wildtype LRRK2)
"C[C@H]1CN(c2cc(-c3n[nH]c4ccc(OC(C)(C)C)cc34)ncn2)CCN1CCOCCOCCOCCOc1ccc2c(c1)C(=O)N(C1CCC(=O)NC1=O)C2=O (stereo partly drawn) [compound 16, 5-{2-[2-(2-{2-[(2S)-4-{6-[5-(tert-butoxy)-1H-indazol-3-yl]pyrimidin-4-yl}-2-methylpiperazin-1-yl]ethoxy}ethoxy)ethoxy]ethoxy}-2-(2,6-dioxopiperidin-3-yl)-2,3-dihydro-1H-isoindole-1,3-dione]",,,≥ 100 nM,< 50%,< 50%,≥ 100 nM
